Measured values: patent publication US11891601B2, “Method to enhance the transcription regulation of SUPT4H on genes containing repetitive nucleotide sequences” (National Yang-Ming University, priority 2018, dated 2024)
pIC50: −log10 of the molar value.

Key:
human RNases H = details: Budihas et al, 2005; read-out: IC50, inhibition of enzymatic activity of human RNases H; cited from earlier work
[1] = test system: R-loops in genes containing lengthy CAG repeats, including mutant HTT; assay: DIP assay of R-loops in genes with lengthy CAG repeats, including mutant HTT, in murine neuronal cells; assay type: cell-based, mouse; details: 30 μM tropolone for 12 hours in Hdh cells
Procedure: Yeast cells were collected after culturing in 2% galactose-containing medium for 12 hours, and then grinded by glass beads in the presence of 300 μl extraction buffer (10 mM Tris-HCl pH 8.0, 10 mM EDTA, 200 mM NaCl, 1% SDS, 2% Triton X-100, 25 units RNase inhibitor). The nucleic acid mixture was subjected to sonication (Bioruptor UCD-200) and extracted by phenol (pH 8.0). Purified chromatin DNA and RNA, with or without RNase H treatment for 90 minutes, was precipitated by monoclonal antibody S9.6 bound to protein G agarose beads. […] The RNA/DNA hybrid (R-loop) signal was analyzed by qPCR and the Quantitative-Comparative CT (MCT) program. In yeast experiments, a pair of primers (Primer-B F and Primer-B R) were used to quantify R-loop signal in the vicinity of CAG repeats and the primer set AMP was used as a control. […] For Hdh^Q7/Q7 and Hdh^Q111/Q111, mouse HTT DIP primer set was used to quantify R-loop signal of the CAG repeating region and Tubal a DIP primer set was included as a control. […]
Please refer to FIG. 7. […] RNA was extracted and analyzed by real-time RT-qPCR to measure the quantity of HTT, SUPT4H and snRNA U6. […] HTT, SUPT4H, TATA-box binding protein (TBP) were measured. […] Analogous to FIG. 7(C), the quantification of HTT protein levels is shown in bottom panel.

In the case of `O=c1cccccc1O` [Tropolone], the pIC50 (human RNases H) is listed as 5.24 and the “R-loops in genes containing lengthy CAG repeats, including mutant HTT” value [1] is listed as “able to increase R-loops”.
